The subject of one data set is S. aureus ATCC 29213. Nature of the data set: microbe, parasite or virus in culture. The settings on record: Staphylococcus aureus, ATCC29213, read-out: MIC (µg/mL).
The nature of data set [1]: in vitro. The conditions noted are these: mouse, liver microsomes. (Microsomes from liver hold many membrane-bound enzymes, among them those of drug oxidation.)
Data set [2] in a line: in vitro. The conditions noted are these: mouse, liver microsomes. This is another data set of the same source.
Data set [3] can be described thus: in vitro. The settings on record: mouse, plasma.

The text below walks through data of doi:10.1101/2024.09.05.611349v1 (biorxiv, 2024).

Values after ≈ are worked out from the molar mass of the structure shown.

Turning to `CCCCCOc1ccc(CC(=O)NNC(=S)NC(C)=O)cc1` [1p], the MIC in the data set with S. aureus ATCC 29213 came out at 25 µg/mL (≈ 74.1 µM).
Same read-out and setting: then `CC(=O)NC(=S)NNC(=O)c1ccc(-c2ccccc2)cc1` [1r], with 1.56 µg/mL (≈ 4.98 µM).
With `CCCOc1ccc(C(=O)NNC(=S)NC(C)=O)cc1` [B5], the MIC in the data set with S. aureus ATCC 29213 worked out at 6.25 µg/mL (≈ 21.2 µM).
Same read-out and setting: then `CCCCCOc1ccc(C(=O)NNC(=S)NC(C)=O)cc1OCCCCC` [1h], with 6.25 µg/mL (≈ 15.3 µM); and `CC(=O)NC(=S)NNC(=O)c1ccc(C2CCCCC2)cc1` [1v, N-(2-(4-cyclohexylbenzoyl)hydrazine-1-carbonothioyl)acetamide], with 0.39 µg/mL (≈ 1.22 µM).
The same measure, in the same setting: then `CCCCCOc1ccc(CCC(=O)NNC(=S)NC(C)=O)cc1` [1q], with > 100 µg/mL.
With `CC(=O)NC(=S)NNC(=O)c1ccc(OCCCC(C)C)cc1` [1e], the MIC with S. aureus ATCC 29213 was found to be 3.12 µg/mL (≈ 9.25 µM).
In the case of `CC(=O)NC(=S)NNC(=O)c1ccc(OC2CCCCC2)cc1` [1m], the MIC in the data set on S. aureus ATCC 29213 amounted to 1.56 µg/mL (≈ 4.65 µM).
Same read-out and setting: with `CCCCCCOc1ccc(C(=O)NNC(=S)NC(C)=O)cc1` [1c, N-(2-(4-(n-hexoxy)benzoyl)hydrazine-1-carbonothioyl)acetamide] the figure was 1.56 µg/mL (≈ 4.62 µM); with `CCCCCOc1ccc(C(=O)NNC(=S)NC(C)=O)c(C)c1` [1k], 3.12 µg/mL (≈ 9.25 µM); with `CC(=O)NC(=S)NNC(=O)c1ccc(Oc2ccccc2)cc1` [1n], 3.12 µg/mL (≈ 9.47 µM).
For `COc1ccc2[nH]c([S+]([O-])Cc3ncc(C)c(OC)c3C)nc2c1` (centres unmarked) [Omeprazole], the half-life (in general, how long it takes for the measured level to halve) in the data set “in vitro [1]” was determined as 9.7 min. Further, in the data set “in vitro [2]”, the intrinsic metabolic clearance (microsomal CLint) (in general, the rate of metabolic loss divided by the concentration) was found to be 143 µL/min/mg.
With `CC(=O)NC(=S)NNC(=O)c1ccc(C2CC2)cc1` [1u], in the data set on S. aureus ATCC 29213, the MIC came to 3.12 µg/mL (≈ 11.2 µM).
In the data set “in vitro [1]”, `O=C(O)Cc1ccccc1Nc1c(Cl)cccc1Cl` [Diclofenac] yielded a half-life of 11.5 min. Moreover, in the data set “in vitro [2]”, the intrinsic clearance (microsomal CLint) was 121 µL/min/mg.
As for `CCCCCOc1ccc(C(=O)NNC(=S)NC(C)=O)cc1O` [1i], in the data set on S. aureus ATCC 29213, the MIC is 25 µg/mL (≈ 73.7 µM).
Same read-out and setting: then `COCCCOc1ccc(C(=O)NNC(=S)NC(C)=O)cc1` [1f], with > 100 µg/mL.
In the case of `COc1ccc2c(c1)[C@]13CCCC[C@@H]1[C@H](C2)N(C)CC3` [Dextromethorphan], the half-life in “in vitro [1]” turned out to be 7.7 min. Moreover, the intrinsic metabolic clearance (microsomal CLint) in “in vitro [2]” was 179 µL/min/mg.
With `CCCCOc1ccc(C(=O)NNC(=S)NC(C)=O)cc1` [1a], the MIC in the data set on S. aureus ATCC 29213 was 1.56 µg/mL (≈ 5.04 µM).
Take `CC(=O)NC(=S)NNC(=O)c1ccc(N2CCOCC2)cc1` [1x]: the MIC with S. aureus ATCC 29213 was found to be 100 µg/mL (≈ 310 µM).
As for `CC(=O)NC(=S)NNC(=O)c1cccc(-c2ccccc2)c1` [1s], the MIC with S. aureus ATCC 29213 worked out at 3.12 µg/mL (≈ 9.96 µM).
On the same count and under the same terms, with `CCCCCOc1ccc(C(=O)NNC(=S)NC(C)=O)nc1` [1o] the figure was 25 µg/mL (≈ 77.1 µM).
For `CC(=O)NC(=S)NNC(=O)c1ccc(O)c(O)c1` [1j], the MIC in the data set on S. aureus ATCC 29213 stood at 100 µg/mL (≈ 371 µM).
The same measure, in the same setting: then `CC(=O)NC(=S)NNC(=O)c1ccc2ccccc2c1` [1t], with 6.25 µg/mL (≈ 21.8 µM); and `CCCCCCCCCCCOc1ccc(C(=O)NNC(=S)NC(C)=O)cc1` [1d], with 100 µg/mL (≈ 245 µM); and `CCC1CCC(c2ccc(C(=O)NNC(=S)NC(C)=O)cc2)CC1` (centres unmarked) [1w, N-(2-(4-(4-ethylcyclohexyl)benzoyl)hydrazine-1-carbonothioyl)acetamide], with 0.2 µg/mL (≈ 0.576 µM).
Consider `CC(C)[N+](C)(CCOC(=O)C1c2ccccc2Oc2ccccc21)C(C)C` [Propantheline bromide], for which the half-life in the data set “in vitro [3]” was 38.3 min.
